# Assay: in vitro
# Conditions: microsomes; for % remaining #1 / % remaining #2 / Ln (% remaining) #1 / Ln (% remaining) #2 / Mean Ln(% remaining): 1 μM, pH 7.4; for microsomal CLint at 1 μM: pH 7.4, CLint; for half-life at 1 μM: pH 7.4, T1/2
# Procedure: The liver microsomes of mouse, rat, dog, monkey and human were purchased from Corning Inc., and were stored at −60° C. prior to use. The acetonitrile and NADPH were purchased from Honeywell International Inc. (New Jersey, U.S.) and Roche Inc. (Basel, Swiss).
# Reactions were initiated by adding NADPH to a final concentration of 1 mM. The final volume of each reaction mixture was 0.2 ml, and all reactions were performed in duplicate. At each set time point (0, 5, 15, 30 and 60 min), a small aliquot (e.g., 20 μl) was transferred from the reaction system into ice-cold internal standard (IS) containing acetonitrile to quench the reaction and to precipitate the protein. After vortex and centrifuge at 3700 rpm for 10 min, the supernatant was injected into LC-MS/MS for analysis.
# In vitro microsomal clearance was estimated based on determination of elimination half-life (T1/2) of compounds disappearance from their initial concentrations. Peak area ratios of each compound (test or control) to IS was calculated. Ln (% Control) versus Incubation Time (min) curve was plotted, and the slope of a linear fitting line was calculated. Drug elimination rate constant k (min^−1), T1/2 (min), and in vitro intrinsic clearance CLint (mL·min^−1·mg^−1 proteins) was calculated according to the following equations: k=−slope T1/2=0.693/k CLint=k/Cprotein where Cprotein (mg·mL^−1) is the microsomal protein concentration in the incubation system. Test 3: Metabolic Stability Assay in Mouse Plasma
# In this study, the metabolic stability of the compounds was assessed in mouse, rat, dog, monkey and human liver microsome according to the method disclosed in Test 2 of the Biological evaluation section.
smiles,measurement,setting,value
"CCN1Cc2c(ccnc2N[C@@H](C)c2ccc(Oc3ccc(C)cc3)cc2)C1=O [Compound 16, (S)-2-ethyl-4-(1-(4-(p-tolyloxy)phenyl)ethylamino)-2,3-dihydro-1H-pyrrolo [3,4-c]pyridin-1-one]",% remaining #1,"dog, 0 h",100%
same,% remaining #2,"dog, 0 h",100%
same,Ln (% remaining) #1,"dog, 0 h",4.61
same,Ln (% remaining) #2,"dog, 0 h",4.61
same,Mean Ln(% remaining),"dog, 0 h",4.61
same,% remaining #1,"dog, 5 min",105%
same,% remaining #2,"dog, 5 min",106%
same,Ln (% remaining) #1,"dog, 5 min",4.65
same,Ln (% remaining) #2,"dog, 5 min",4.66
same,Mean Ln(% remaining),"dog, 5 min",4.66
same,% remaining #1,"dog, 0.25 h",94.6%
same,% remaining #2,"dog, 0.25 h",85.4%
same,Ln (% remaining) #1,"dog, 0.25 h",4.55
same,Ln (% remaining) #2,"dog, 0.25 h",4.45
same,Mean Ln(% remaining),"dog, 0.25 h",4.50
same,% remaining #1,"dog, 0.5 h",76.5%
same,% remaining #2,"dog, 0.5 h",76.0%
same,Ln (% remaining) #1,"dog, 0.5 h",4.34
same,Ln (% remaining) #2,"dog, 0.5 h",4.33
same,Mean Ln(% remaining),"dog, 0.5 h",4.33
same,% remaining #1,"dog, 1 h",52.8%
same,% remaining #2,"dog, 1 h",48.8%
same,Ln (% remaining) #1,"dog, 1 h",3.97
same,Ln (% remaining) #2,"dog, 1 h",3.89
same,Mean Ln(% remaining),"dog, 1 h",3.93
same,microsomal CLint at 1 μM,dog,23 µL/min/mg
same,half-life at 1 μM,dog,60.3 min
same,stability in human liver microsome,human,medium stability
same,% remaining #1,"human, 0 h",100%
same,% remaining #2,"human, 0 h",100%
same,Ln (% remaining) #1,"human, 0 h",4.61
same,Ln (% remaining) #2,"human, 0 h",4.61
same,Mean Ln(% remaining),"human, 0 h",4.61
same,% remaining #1,"human, 5 min",87.1%
same,% remaining #2,"human, 5 min",90.5%
same,Ln (% remaining) #1,"human, 5 min",4.47
same,Ln (% remaining) #2,"human, 5 min",4.51
same,Mean Ln(% remaining),"human, 5 min",4.49
same,% remaining #1,"human, 0.25 h",65.7%
same,% remaining #2,"human, 0.25 h",69.0%
same,Ln (% remaining) #1,"human, 0.25 h",4.18
same,Ln (% remaining) #2,"human, 0.25 h",4.23
same,Mean Ln(% remaining),"human, 0.25 h",4.21
same,% remaining #1,"human, 0.5 h",51.7%
same,% remaining #2,"human, 0.5 h",50.5%
same,Ln (% remaining) #1,"human, 0.5 h",3.95
same,Ln (% remaining) #2,"human, 0.5 h",3.92
same,Mean Ln(% remaining),"human, 0.5 h",3.93
same,% remaining #1,"human, 1 h",26.2%
same,% remaining #2,"human, 1 h",25.4%
same,Ln (% remaining) #1,"human, 1 h",3.27
same,Ln (% remaining) #2,"human, 1 h",3.23
same,Mean Ln(% remaining),"human, 1 h",3.25
same,microsomal CLint at 1 μM,human,43.6 µL/min/mg
same,half-life at 1 μM,human,31.8 min
same,% remaining #1,"monkey, 0 h",100%
same,% remaining #2,"monkey, 0 h",100%
same,Ln (% remaining) #1,"monkey, 0 h",4.61
same,Ln (% remaining) #2,"monkey, 0 h",4.61
same,Mean Ln(% remaining),"monkey, 0 h",4.61
same,% remaining #1,"monkey, 5 min",66.1%
same,% remaining #2,"monkey, 5 min",72.7%
same,Ln (% remaining) #1,"monkey, 5 min",4.19
same,Ln (% remaining) #2,"monkey, 5 min",4.29
same,Mean Ln(% remaining),"monkey, 5 min",4.24
same,% remaining #1,"monkey, 0.25 h",32.5%
same,% remaining #2,"monkey, 0.25 h",35.4%
same,Ln (% remaining) #1,"monkey, 0.25 h",3.48
same,Ln (% remaining) #2,"monkey, 0.25 h",3.57
same,Mean Ln(% remaining),"monkey, 0.25 h",3.52
same,% remaining #1,"monkey, 0.5 h",12.5%
same,% remaining #2,"monkey, 0.5 h",12.2%
same,Ln (% remaining) #1,"monkey, 0.5 h",2.53
same,Ln (% remaining) #2,"monkey, 0.5 h",2.51
same,Mean Ln(% remaining),"monkey, 0.5 h",2.52
same,% remaining #1,"monkey, 1 h",2.13%
same,% remaining #2,"monkey, 1 h",2.06%
same,Ln (% remaining) #1,"monkey, 1 h",0.757
same,Ln (% remaining) #2,"monkey, 1 h",0.725
same,Mean Ln(% remaining),"monkey, 1 h",0.741
same,microsomal CLint at 1 μM,monkey,127 µL/min/mg
same,half-life at 1 μM,monkey,10.9 min
same,% remaining #1,"mouse, 0 h",100%
same,% remaining #2,"mouse, 0 h",100%
same,Ln (% remaining) #1,"mouse, 0 h",4.61
same,Ln (% remaining) #2,"mouse, 0 h",4.61
same,Mean Ln(% remaining),"mouse, 0 h",4.61
same,% remaining #1,"mouse, 5 min",88.1%
same,% remaining #2,"mouse, 5 min",94.2%
same,Ln (% remaining) #1,"mouse, 5 min",4.48
same,Ln (% remaining) #2,"mouse, 5 min",4.55
same,Mean Ln(% remaining),"mouse, 5 min",4.51
same,% remaining #1,"mouse, 0.25 h",72.7%
same,% remaining #2,"mouse, 0.25 h",80.8%
same,Ln (% remaining) #1,"mouse, 0.25 h",4.29
same,Ln (% remaining) #2,"mouse, 0.25 h",4.39
same,Mean Ln(% remaining),"mouse, 0.25 h",4.34
same,% remaining #1,"mouse, 0.5 h",31.0%
same,% remaining #2,"mouse, 0.5 h",43.8%
same,Ln (% remaining) #1,"mouse, 0.5 h",3.43
same,Ln (% remaining) #2,"mouse, 0.5 h",3.78
same,Mean Ln(% remaining),"mouse, 0.5 h",3.61
same,% remaining #1,"mouse, 1 h",10.6%
same,% remaining #2,"mouse, 1 h",12.0%
same,Ln (% remaining) #1,"mouse, 1 h",2.36
same,Ln (% remaining) #2,"mouse, 1 h",2.48
same,Mean Ln(% remaining),"mouse, 1 h",2.42
same,microsomal CLint at 1 μM,mouse,77.4 µL/min/mg
same,half-life at 1 μM,mouse,17.9 min
same,% remaining #1,"rat, 0 h",100%
same,% remaining #2,"rat, 0 h",100%
same,Ln (% remaining) #1,"rat, 0 h",4.61
same,Ln (% remaining) #2,"rat, 0 h",4.61
same,Mean Ln(% remaining),"rat, 0 h",4.61
same,% remaining #1,"rat, 5 min",90.0%
same,% remaining #2,"rat, 5 min",111%
same,Ln (% remaining) #1,"rat, 5 min",4.50
same,Ln (% remaining) #2,"rat, 5 min",4.71
same,Mean Ln(% remaining),"rat, 5 min",4.61
same,% remaining #1,"rat, 0.25 h",59.4%
same,% remaining #2,"rat, 0.25 h",92.3%
same,Ln (% remaining) #1,"rat, 0.25 h",4.09
same,Ln (% remaining) #2,"rat, 0.25 h",4.53
same,Mean Ln(% remaining),"rat, 0.25 h",4.31
same,% remaining #1,"rat, 0.5 h",35.8%
same,% remaining #2,"rat, 0.5 h",62.9%
same,Ln (% remaining) #1,"rat, 0.5 h",3.58
same,Ln (% remaining) #2,"rat, 0.5 h",4.14
same,Mean Ln(% remaining),"rat, 0.5 h",3.86
same,% remaining #1,"rat, 1 h",14.0%
same,% remaining #2,"rat, 1 h",24.1%
same,Ln (% remaining) #1,"rat, 1 h",2.64
same,Ln (% remaining) #2,"rat, 1 h",3.18
same,Mean Ln(% remaining),"rat, 1 h",2.91
same,microsomal CLint at 1 μM,rat,66.5 µL/min/mg
same,half-life at 1 μM,rat,20.8 min

# From patent US10752626B2, “Iso-citrate dehydrogenase (IDH) inhibitor” (SHANGHAI METON PHARMACEUTICAL CO., LTD, priority 2016, dated 2020)
